{"source": "patent US12465582B2", "about": "“(S)-2-amino-6-((3-aminopropyl)amino)hexanoic acid (APL) for use in the treatment of non-alcoholic steatohepatitis (NASH), liver inflammation, hepatocellular ballooning, liver fibrosis and steatosis” (Temple University—Of The Commonwealth System Of Higher …, priority 2020, dated 2025)", "format_in_all_cases": "in vivo", "key": {"[1]": {"tested_on": "C57BL/6J mice fed AMLN diet changed to HFD", "test": "NAS and liver fibrosis in AMLN diet mouse model of NASH", "conditions": "APL p.o. b.i.d., 16 weeks", "experimental": "FIG. 12, comprising FIGS. 12A and 12B, depicts data regarding NAS and fibrosis in an AMLN diet mouse model of NASH. C57BL/6J mice were fed either CHOW or a modified AMLN diet that was changed to HFD after twenty (20) weeks. At seek fifty (50) mice were treated with vehicle or APL (p.o.b.i.d.). The APL dosage 25, 50, or 100 mg/kg, oral administration (p.o.) in two dosages per day (b.i.d.) (total dosage of 50, 100, or 200 mg/kg/day). After sixteen (16) weeks of treatment with vehicle or APL biopsies were collected and stained with hematoxylin & eosin (H&E) and evaluated for steatosis, inflammation, and hepatocyte ballooning. FIG. 12A depicts the reduction in NAS the treated group as compared to the positive control. […] FIG. 12B depicts the reduction in liver fibrosis in the treated group as compared to the positive control.\nC57BL/6 mice were maintained in cages and had free access to standard rodent chow (Cat #5053, obtained from Labdiet, Saint Louis, MO) and water. C57BL/6J mice were fed either CHOW (negative control) or amylin liver NASH (AMLN) diet (58% high fat, 25% carbohydrate, 2% cholesterol) for twenty (20) weeks. Beginning at twenty (20) weeks, animals fed AMLN diet were changed to HFD. At fifty (50) weeks, animals were treated twice daily (b.i.d.) with oral administration (p.o.) of either vehicle (positive control) or APL (treated)."}, "[2]": {"tested_on": "4-hydroxynonenal (4-HNE) in liver of C57BL/6J mice fed HFD", "test": "Hepatic 4-HNE immunofluorescence (protein carbonyls) in DIO mouse NASH model", "conditions": "130 days", "experimental": "Liver samples from C57BL/6J mice fed chow and treated with vehicle, C57BL/6J mice fed HFD and treated with vehicle, and C57BL/6J mice fed HFD and treated with APL, as described in Example 1, were prepared and stained with an anti-4HNE antibody from Abcam (catalog #ab46545) for immunofluorescent analysis of the presence of 4-HNE. The APL dosage, administration frequency, and duration of treatment were as described in Example 1 (APL dosage administered to each animal was 200 milligrams per kilogram of body weight divided in two dosages per day, via oral gavage; treatment duration of 130 days; animals fed ad libitum). The data are depicted in FIG. 10. FIG. 10A are representative images of 4-HNE immunofluorescence liver sections from C57BL/6J mice fed chow and treated with vehicle, C57BL/6J mice fed HFD and treated with either vehicle or APL (TB-019) at 20× or 63× magnification. FIG. 10B is a plot of the 4-HNE immunofluorescence intensity per tissue area."}, "[3]": {"tested_on": "4-hydroxynonenal (4-HNE) in liver of Zucker (fa/fa) obese rats", "test": "Hepatic 4-HNE immunofluorescence (protein carbonyls) in rat NASH model", "description": "(§1) Zucker (fa/fa) obese rats and Zucker (Fa/fa) lean rats (7-week old male animals obtained from Charles Rivers Laboratories, Wilmington, MA, USA) were maintained in individual cages (1 rat per cage to encourage sedentary activity) and had free access to standard rodent chow (Cat #5053 obtained from Labdiet, Saint Louis, MO) and water for (filtered and packed using a Hydrapak system) for 7 days until the start of the experiment. Zucker (fa/fa) obese rats were randomly assigned to two groups: 1) vehicle p.o.b.i.d. (oral administration, twice a day) for 78 days; and 2) 100 milligram per kilogram (mg/kg) body weight APL (p.o.b.i.d.) for 78 days. Zucker (Fa/fa) lean rats served as control. The APL dosage was 100 mg/kg/day. Animals were fed ad libitum. The animals were humanely euthanized, and the livers were removed for histological analysis. Liver samples in formalin were allowed to fix for 48 hours, and processed into FFPE blocks after fixations. Slides were stained with hematoxylin and eosin (H&E) and Mason trichrome staining.\nLiver samples from the Zucker rats in Example 4 were stained with an anti-4HNE antibody from Abcam (catalog #ab46545) for immunofluorescent analysis of the presence of 4-HNE. The data are depicted in FIG. 9. FIG. 9A are representative images of 4-HNE immunofluorescence liver sections from Zucker (Fa/fa) lean rats, Zucker (fa/fa) obese rats administered vehicle, and Zucker (fa/fa) obese rats administered vehicle administered APL. FIG. 9B is a plot of the 4HNE immunofluorescence intensity per tissue area, and FIG. 9C is a plot of total tissue area. […] Cytotoxic lipid by products such as 4-HNE are known to be elevated in human NASH livers as compared to healthy livers. See e.g., Serviddio et al., Uncoupling protein-2 (UCP2) induces mitochondrial proton leak and increases susceptibility of non-alcoholic steatohepatitis (NASH) liver to ischaemia-reperfusion injury. Gut. 2008 July; 57(7):957-65. doi: 10.1136/gut.2007.147496. Epub 2008 Feb. 28. The data implies that 4-HNE plays a crucial role in the pathogenesis of NASH."}, "[4]": {"tested_on": "Zucker (fa/fa) obese rats", "test": "Hepatic fibrosis: H&E and Mason trichrome liver histology in Zucker rat NASH model", "conditions": "100 mg/kg APL p.o. b.i.d., 78 days", "description": "as §1"}, "Zucker fa/fa obese rats": {"tested_on": "Zucker fa/fa obese rats", "test": "Glucose tolerance test (GTT) in Zucker rat model of NASH", "conditions": "100 mg/kg APL p.o. b.i.d., 78 days, **p<0.01", "description": "Zucker fa/fa obese rats and Zucker Fa/fa lean rats (7-week old male animals obtained from Charles Rivers Laboratories, Wilmington, MA, USA) were maintained in individual cages (1 rat per cage to encourage sedentary activity) and had free access to standard rodent chow (Cat #5053, obtained from Labdiet, Saint Louis, MO) and water (filtered and packed using a Hydrapak system) for 7 days until the start of the experiment. Zucker fa/fa obese rats were randomly assigned to two groups: 1) vehicle p.o.b.i.d. (oral administration, twice a day) for 78 days (n=7); and 2) 100 milligram per kilogram (mg/kg) body weight APL (p.o.b.i.d.) for 78 days (n=8). Zucker Fa/fa lean rats (n=4) were administered vehicle (p.o.b.i.d.) for 78 days. Phosphate-buffered saline (PBS), which is the solution used to dissolve APL, was used as vehicle solution. APL powder was dissolved under sterile conditions with PBS at a concentration of 100 mg/mL; volumes were adjusted for each animal accordingly to their body weight. […]\nAt the conclusion of the experimental time period (78 days for rats and 130 days for mice), the animals were subjected to a glucose tolerance test (GTT) as follows. […] Glucose levels were measured at 0, 15, 30, 45, 60, and 120 minutes after glucose administration. Glucose was measured using the AlphaTRAK 2 glucometer from Abbott"}, "[5]": {"conditions": "Zucker obese rats, 100 mg/kg APL p.o. b.i.d., 78 days, ***p<0.001"}}, "data": [{"smiles": "NCCCNCCCC[C@H](N)C(=O)O", "note": "[APL, (S)-2-amino-6-((3-aminopropyl)amino)hexanoic acid]", "values": [{"measurement": "liver fibrosis vs positive control (FIG. 12B)", "setting": "[1]; ****p<0.0001", "value": "significant reduction"}, {"measurement": "NAS vs positive control (FIG. 12A)", "setting": "[1]; ***p<0.001", "value": "significant reduction"}, {"measurement": "protein carbonyls in liver (4-HNE immunofluorescence intensity per tissue area), treated vs HFD vehicle", "setting": "[2]; APL 200 mg/kg/day in two doses, oral gavage, ***p<0.001", "value": "reduced"}, {"measurement": "4-HNE immunofluorescence intensity per tissue area, treated vs negative control (chow vehicle)", "setting": "[2]; APL 200 mg/kg/day", "value": "No statistical difference"}, {"measurement": "hepatic 4-HNE intensity / total tissue area, treated vs negative control", "setting": "[3]; Zucker obese rats treated with APL vs lean control", "value": "No significant statistical difference"}, {"measurement": "hepatic 4-HNE immunofluorescence intensity per tissue area, treated vs obese vehicle", "setting": "[3]; [5]", "value": "significantly reduces"}, {"measurement": "total liver tissue area (FIG. 9C), treated vs obese vehicle", "setting": "[3]; [5]", "value": "maintains the total liver tissue area"}, {"measurement": "liver morphology, H&E (FIG. 8A)", "setting": "[4]", "value": "preserve the normal morphology of the liver"}, {"measurement": "liver collagen fibers, Mason trichrome blue staining (FIG. 8B/8C)", "setting": "[4]; vs multiple collagen fibers with vehicle", "value": "minimum blue staining"}, {"measurement": "AUC of GTT, obese rats treated with APL vs obese rats treated with vehicle", "setting": "Zucker fa/fa obese rats", "value": "significantly lower"}]}]}
